Experimental findings from patent publication US6313375A, “Maize aquaporins and uses thereof” (Pioneer Hi-Bred International, Inc., priority 1999, dated 2001) are described below.

In one assay the test system is maize aquaporins. Description: Inhibition of water transport through maize aquaporins in the Xenopus oocyte swelling assay. Format: cell-based. As to the method:
(§1) The biological activity of aquaporins is usually determined with Xenopus oocyte swelling assays (Maurel et al, 1993). MIP cRNA is injected into oocytes and after a 3-day incubation the oocytes are shifted to a hypotonic medium. If water channel proteins are present in the plasma membrane, the oocytes swell and burst much faster than the control oocytes. In these conditions oocytes injected with the plasma membrane AtRD28 aquaporin (Daniels et al., 1994) or maize aquaporin cRNAs rapidly increase their volume, indicating the presence of a facilitated water-transport pathway. The osmotic water permeability coefficient (Pf) of the oocyte membrane increases 8-fold over the control. Mercurial compounds were characteristic inhibitors of many water-channel proteins. Water transport through maize aquaporins are inhibited 50% by 1 mM mercuric chloride and this inhibition is reversed by the reducing agent -mercaptoethanol.

For the next assay, the system named is Xenopus oocyte. In words: Xenopus oocyte swelling assay (oocytes injected with aquaporin cRNA, shifted to hypotonic medium). Format: cell-based. The settings on record: 3-day incubation, versus control oocytes. As to the method:
as §1

For `OCCS` [-mercaptoethanol], in the assay on maize aquaporins (reducing agent added after inhibition by 1 mM mercuric chloride), the “reversal of the mercuric chloride inhibition of water transport through maize aquaporins” value was “reversed”.

Consider `[Cl][Hg][Cl]` [mercuric chloride], for which the “inhibition of water transport through maize aquaporins” value in the assay on maize aquaporins (1 mM mercuric chloride) stood at 50%.

B1: AtRD28 aquaporin: plasma membrane AtRD28 aquaporin (Daniels et al., 1994), injected into oocytes as cRNA (protein, UniProt P30302 1-285, looked up)
Aquaporin PIP2-3: MAKDVEGPDGFQTRDYEDPPPTPFFDAEELTKWSLYRAVIAEFVATLLFLYVTVLTVIGYKIQSDTKAGGVDCGGVGILGIAWAFGGMIFILVYCTAGISGGHINPAVTFGLFLARKVSLIRAVLYMVAQCLGAICGVGFVKAFQSSHYVNYGGGANFLADGYNTGTGLAAEIIGTFVLVYTVFSATDPKRNARDSHVPVLAPLPIGFAVFMVHLATIPITGTGINPARSFGAAVIFNKSKPWDDHWIFWVGPFIGATIAAFYHQFVLRASGSKSLGSFRSAANV
Regarding B1, the “increase of the osmotic water permeability coefficient (Pf) of the oocyte membrane over the control” value with Xenopus oocyte is listed as 8 fold.
